In ChEMBL document CHEMBL5154925, “Design and Optimization of Thienopyrimidine Derivatives as Potent and Selective PI3Kδ Inhibitors for the Treatment of B-Cell Malignancies” (J Med Chem, 2022):
Activity calls are given as the source filed them. The calls are words filed in the database; no cut-off is given here.

Key:
Pfeiffer [1] = experiment: Induction of apoptosis in human Pfeiffer cells assessed as necrotic cells at 10 uM incubated for 48 hrs by annexin V-FITC staining based flow cytometry (reference value: 6.62 %); type: functional
Pfeiffer [2] = experiment: Antitumour activity against human Pfeiffer cells xenografted in nude mouse assessed as reduction in Ki67 expression in tumor at 5 mg/kg, ip BID for 21 days by immunohistochemical analysis; type: functional, organism-based; settings: time 21.0 day
SU-DHL-6 [3] = experiment: Antiproliferative activity against human SU-DHL-6 cells assessed as cell growth inhibition incubated for 96 hrs by cell titer glo assay; type: functional, cell-based; settings: SU-DHL-6, 96 h
[4] = target: T1, Phosphatidylinositol 4,5-bisphosphate 3-kinase catalytic subunit delta isoform (Homo sapiens, UniProt O00329); experiment: Inhibition of PI3Kdelta (unknown origin) using PIP2 as substrate measured after 1 hr in presence of ATP by ADP-glo luminescence assay
T1 sequence (O00329 whole entry): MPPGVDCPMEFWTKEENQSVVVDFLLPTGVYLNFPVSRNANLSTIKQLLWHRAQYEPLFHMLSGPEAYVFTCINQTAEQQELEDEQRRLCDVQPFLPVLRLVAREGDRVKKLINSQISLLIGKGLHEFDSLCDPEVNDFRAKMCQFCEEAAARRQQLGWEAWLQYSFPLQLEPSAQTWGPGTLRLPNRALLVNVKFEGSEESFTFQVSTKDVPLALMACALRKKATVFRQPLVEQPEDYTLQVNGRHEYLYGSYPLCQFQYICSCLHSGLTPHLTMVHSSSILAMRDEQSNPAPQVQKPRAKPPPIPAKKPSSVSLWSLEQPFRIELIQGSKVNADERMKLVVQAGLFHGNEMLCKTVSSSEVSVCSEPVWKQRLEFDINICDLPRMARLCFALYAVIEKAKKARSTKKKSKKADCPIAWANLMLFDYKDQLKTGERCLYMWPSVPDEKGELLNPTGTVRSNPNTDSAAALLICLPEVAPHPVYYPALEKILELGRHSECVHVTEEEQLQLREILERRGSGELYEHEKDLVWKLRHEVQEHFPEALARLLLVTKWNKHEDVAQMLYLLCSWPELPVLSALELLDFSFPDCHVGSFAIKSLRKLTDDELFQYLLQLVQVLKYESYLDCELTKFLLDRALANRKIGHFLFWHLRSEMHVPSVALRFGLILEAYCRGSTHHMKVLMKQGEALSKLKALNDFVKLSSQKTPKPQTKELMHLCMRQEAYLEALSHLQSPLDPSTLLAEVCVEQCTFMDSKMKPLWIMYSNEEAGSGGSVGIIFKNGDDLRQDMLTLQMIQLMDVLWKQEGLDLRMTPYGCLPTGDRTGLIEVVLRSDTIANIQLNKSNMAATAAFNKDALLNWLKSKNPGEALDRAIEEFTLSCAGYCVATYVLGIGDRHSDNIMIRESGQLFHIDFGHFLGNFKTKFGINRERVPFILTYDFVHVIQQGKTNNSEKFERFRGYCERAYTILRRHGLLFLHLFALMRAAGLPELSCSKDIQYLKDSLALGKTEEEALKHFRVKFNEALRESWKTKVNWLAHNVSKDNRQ

[5] = Toxicity in nude mouse xenografted with human Pfeiffer cells assessed as effect on body weight at 5 mg/kg, ip BID for 21 days and measured twice weekly; type: organism-based; settings: in vivo, 504 h, time 21 day
[6] = target: T1, Phosphatidylinositol 4,5-bisphosphate 3-kinase catalytic subunit delta isoform; experiment: Inhibition of PI3Kdelta in IgM stimulated human Raji cells incubated for 10 mins by AlphaLISA assay; type: cell-based
[7] = target: T2, Phosphatidylinositol 4,5-bisphosphate 3-kinase catalytic subunit gamma isoform (Homo sapiens, UniProt P48736); experiment: Inhibition of wild type partial length human PIK3CG (S144 to A1102 residues) expressed in mammalian cells assessed as residual activity at 10 uM relative to control; type: cell-based
Target sequence in this assay (P48736 whole entry, looked up, the tested form may be a part, canonical isoform): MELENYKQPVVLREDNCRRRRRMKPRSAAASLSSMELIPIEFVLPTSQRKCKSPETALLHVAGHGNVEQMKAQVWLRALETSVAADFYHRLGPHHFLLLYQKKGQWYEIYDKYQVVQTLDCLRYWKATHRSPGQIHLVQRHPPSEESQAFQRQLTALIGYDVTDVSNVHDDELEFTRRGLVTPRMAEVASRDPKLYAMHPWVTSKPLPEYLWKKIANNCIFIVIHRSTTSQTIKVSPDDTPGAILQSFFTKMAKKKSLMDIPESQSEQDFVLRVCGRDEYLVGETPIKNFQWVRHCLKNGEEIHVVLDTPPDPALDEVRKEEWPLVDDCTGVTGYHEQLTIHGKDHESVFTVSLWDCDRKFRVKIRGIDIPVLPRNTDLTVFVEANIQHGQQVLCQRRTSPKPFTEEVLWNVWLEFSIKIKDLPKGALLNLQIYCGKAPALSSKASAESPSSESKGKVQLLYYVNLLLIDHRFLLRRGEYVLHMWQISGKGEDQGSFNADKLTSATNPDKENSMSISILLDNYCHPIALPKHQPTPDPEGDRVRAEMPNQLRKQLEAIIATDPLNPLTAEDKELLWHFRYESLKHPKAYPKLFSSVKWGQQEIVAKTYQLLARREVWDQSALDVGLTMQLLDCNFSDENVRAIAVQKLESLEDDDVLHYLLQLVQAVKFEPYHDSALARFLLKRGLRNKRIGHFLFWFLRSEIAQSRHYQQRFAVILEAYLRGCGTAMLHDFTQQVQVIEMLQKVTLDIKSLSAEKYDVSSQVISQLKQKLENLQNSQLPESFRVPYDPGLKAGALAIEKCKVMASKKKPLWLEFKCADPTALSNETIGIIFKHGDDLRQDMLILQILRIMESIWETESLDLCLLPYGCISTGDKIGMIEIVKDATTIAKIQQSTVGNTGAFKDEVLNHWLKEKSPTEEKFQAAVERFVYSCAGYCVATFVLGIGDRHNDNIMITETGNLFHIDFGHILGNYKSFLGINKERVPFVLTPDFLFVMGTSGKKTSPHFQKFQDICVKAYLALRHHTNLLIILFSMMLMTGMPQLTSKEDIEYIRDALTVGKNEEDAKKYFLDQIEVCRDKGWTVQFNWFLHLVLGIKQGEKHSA

Pfeiffer [8] = experiment: Antitumour activity against human Pfeiffer cells xenografted in nude mouse assessed as reduction in Ki67 expression in tumor at 75 mg/kg, po BID for 21 days by immunohistochemical analysis; type: functional, organism-based; settings: time 21.0 day
[9] = target: T2, Phosphatidylinositol 4,5-bisphosphate 3-kinase catalytic subunit gamma isoform; experiment: Inhibition of PI3Kgamma (unknown origin) using PIP2 as substrate measured after 1 hr in presence of ATP by ADP-glo luminescence assay
Target sequence in this assay (P48736 whole entry, the tested form may be a part, canonical isoform): as the sequence (P48736 whole entry, looked up, the tested form may be a part, canonical isoform) above

Pfeiffer [10] = experiment: Antitumor activity against human Pfeiffer cells xenografted in nude mouse assessed as tumor growth inhibition at 5 mg/kg, ip BID for 21 days and measured twice weekly; type: functional; settings: 504 h, time 21 day, read-out: TGI
SUD4 = experiment: Antiproliferative activity against human SU-DHL-4 cells assessed as cell growth inhibition incubated for 96 hrs by cell titer glo assay; type: functional, cell-based; settings: SU-DHL-4, 96 h
[11] = Microsomal stability in mouse liver microsomes assessed as half life; type: ADME, Microsome
Pfeiffer [12] = experiment: Induction of apoptosis in human Pfeiffer cells assessed as viable […] cells at 2 uM incubated for 48 hrs by annexin V-FITC staining based flow cytometry (reference value: 81.14 %); type: functional
[13] = target: Phosphatidylinositol 4,5-bisphosphate 3-kinase catalytic subunit alpha isoform (Mus musculus, UniProt P42337); experiment: Inhibition of PI3Kalpha in IGF-1 stimulated mouse C2C12 cells incubated for 10 mins by AlphaLISA assay; type: cell-based
DOHH-2 = experiment: Antiproliferative activity against human DOHH-2 cells assessed as cell growth inhibition incubated for 96 hrs by cell titer glo assay; type: functional, cell-based; settings: DOHH-2, 96 h
B-cell = experiment: Inhibition of PI3Kdelta dependent mouse B-cell activation assessed as reduction in ratio of CD86 and B220 level at 0.001 to 0.1 uM stimulated with IgM for 1 hr prior to compound addition and measured after 24 hrs by flow cytometry analysis; type: functional, cell-based; settings: dose 0.001-0.1 µM, time 25.0 hrs
Pfeiffer [14] = experiment: Induction of apoptosis in human Pfeiffer cells assessed as early apoptotic cells at 2 uM incubated for 48 hrs by annexin V-FITC staining based flow cytometry (reference value: 4.16 %); type: functional
[15] = Oral bioavailability in ICR mouse at 30 mg/kg measured upto 24 hrs by LC-MS/MS analysis; type: ADME, organism-based; settings: in vivo
[16] = Cmax in ICR mouse at 30 mg/kg, po measured upto 24 hrs by LC-MS/MS analysis; type: ADME, organism-based; parameters: time < 24 hrs, dose 30 mg/kg, route po; settings: in vivo
[17] = target: Phosphatidylinositol 4,5-bisphosphate 3-kinase catalytic subunit alpha isoform (Homo sapiens, UniProt P42336); experiment: Inhibition of PI3Kalpha (unknown origin) using PIP2 as substrate measured after 1 hr in presence of ATP by ADP-glo luminescence assay
Mus musculus = experiment: In vivo inhibition of PI3K signalling in human Pfeiffer cells xenografted in nude mouse assessed as reduction in Akt phosphorylation at Ser473 at 5 mg/kg, ip by Western blotting analysis; type: functional, organism-based
Pfeiffer [18] = experiment: Induction of apoptosis in human Pfeiffer cells assessed as viable […] cells at 50 uM incubated for 48 hrs by annexin V-FITC staining based flow cytometry (reference value: 81.14 %); type: functional
Pfeiffer [19] = experiment: Induction of apoptosis in human Pfeiffer cells assessed as late apoptotic cells at 50 uM incubated for 48 hrs by annexin V-FITC staining based flow cytometry (reference value: 7.87 %); type: functional
SU-DHL-6 [20] = experiment: Induction of apoptosis in human SU-DHL-6 cells assessed as apoptotic rate at 50 uM incubated for 48 hrs by annexin V-FITC staining based flow cytometry; type: functional

Chain of Phosphatidylinositol 4,5-bisphosphate 3-kinase catalytic subunit alpha isoform (Homo sapiens, UniProt P42336) (P42336 whole entry, canonical isoform): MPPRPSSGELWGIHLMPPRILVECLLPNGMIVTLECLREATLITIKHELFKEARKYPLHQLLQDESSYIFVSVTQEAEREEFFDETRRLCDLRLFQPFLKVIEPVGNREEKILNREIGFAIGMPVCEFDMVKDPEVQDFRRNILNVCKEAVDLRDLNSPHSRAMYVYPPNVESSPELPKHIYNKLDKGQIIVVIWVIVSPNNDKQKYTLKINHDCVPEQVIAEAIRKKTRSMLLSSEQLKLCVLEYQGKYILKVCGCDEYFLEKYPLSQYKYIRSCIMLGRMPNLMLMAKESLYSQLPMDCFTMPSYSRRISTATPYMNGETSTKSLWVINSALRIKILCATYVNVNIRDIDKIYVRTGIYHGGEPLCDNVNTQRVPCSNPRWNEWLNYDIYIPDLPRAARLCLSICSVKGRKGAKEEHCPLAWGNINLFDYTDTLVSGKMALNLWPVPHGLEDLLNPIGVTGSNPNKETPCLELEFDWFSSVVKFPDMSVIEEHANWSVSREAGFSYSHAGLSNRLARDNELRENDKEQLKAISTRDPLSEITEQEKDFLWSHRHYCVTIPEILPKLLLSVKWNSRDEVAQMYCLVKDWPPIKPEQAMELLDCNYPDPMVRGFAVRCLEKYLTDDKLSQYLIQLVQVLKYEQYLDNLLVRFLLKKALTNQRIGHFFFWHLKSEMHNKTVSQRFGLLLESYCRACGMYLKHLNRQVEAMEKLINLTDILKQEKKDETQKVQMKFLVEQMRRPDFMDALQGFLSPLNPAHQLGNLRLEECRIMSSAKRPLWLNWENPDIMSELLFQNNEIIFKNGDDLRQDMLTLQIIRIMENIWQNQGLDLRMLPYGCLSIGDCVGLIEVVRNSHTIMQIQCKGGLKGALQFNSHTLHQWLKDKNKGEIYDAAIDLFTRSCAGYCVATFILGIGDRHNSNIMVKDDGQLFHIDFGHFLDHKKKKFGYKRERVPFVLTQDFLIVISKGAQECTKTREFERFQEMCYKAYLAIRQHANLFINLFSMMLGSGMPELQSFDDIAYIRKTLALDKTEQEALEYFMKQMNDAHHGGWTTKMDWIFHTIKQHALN
Chain of Phosphatidylinositol 4,5-bisphosphate 3-kinase catalytic subunit alpha isoform (Mus musculus, UniProt P42337) (P42337 whole entry, canonical isoform): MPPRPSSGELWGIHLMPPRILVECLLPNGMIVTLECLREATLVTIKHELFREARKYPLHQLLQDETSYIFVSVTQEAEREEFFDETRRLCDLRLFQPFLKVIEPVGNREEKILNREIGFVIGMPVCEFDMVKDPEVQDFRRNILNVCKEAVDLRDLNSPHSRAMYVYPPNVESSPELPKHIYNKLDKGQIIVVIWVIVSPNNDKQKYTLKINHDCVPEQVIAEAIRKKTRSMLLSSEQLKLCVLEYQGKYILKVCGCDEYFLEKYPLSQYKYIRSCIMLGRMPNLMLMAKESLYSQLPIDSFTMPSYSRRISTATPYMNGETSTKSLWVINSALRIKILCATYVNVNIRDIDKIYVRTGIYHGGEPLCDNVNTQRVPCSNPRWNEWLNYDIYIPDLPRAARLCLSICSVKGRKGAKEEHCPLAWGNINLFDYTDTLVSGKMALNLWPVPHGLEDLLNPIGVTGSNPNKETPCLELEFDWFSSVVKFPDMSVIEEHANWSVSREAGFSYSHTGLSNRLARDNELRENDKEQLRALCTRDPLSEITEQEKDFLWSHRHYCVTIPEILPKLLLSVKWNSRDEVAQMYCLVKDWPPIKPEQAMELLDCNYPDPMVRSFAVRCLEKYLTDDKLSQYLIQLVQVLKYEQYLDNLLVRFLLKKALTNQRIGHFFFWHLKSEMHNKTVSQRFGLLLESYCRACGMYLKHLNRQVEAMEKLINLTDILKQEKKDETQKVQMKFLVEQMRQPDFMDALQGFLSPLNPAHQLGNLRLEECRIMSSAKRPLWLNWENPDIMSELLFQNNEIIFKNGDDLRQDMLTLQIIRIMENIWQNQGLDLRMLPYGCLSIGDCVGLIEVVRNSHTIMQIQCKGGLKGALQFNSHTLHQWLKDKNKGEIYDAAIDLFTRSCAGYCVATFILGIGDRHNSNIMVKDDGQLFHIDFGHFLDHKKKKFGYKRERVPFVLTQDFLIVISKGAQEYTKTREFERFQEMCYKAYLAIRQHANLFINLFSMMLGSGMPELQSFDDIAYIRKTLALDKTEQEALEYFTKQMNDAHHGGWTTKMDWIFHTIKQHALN

SMILES: CCC(=O)N1CC[C@H](Nc2ncnc3sc(-c4cnc(OC)c(OC)c4)cc23)C1
- Activity (Pfeiffer [1]): 6.72%
- Activity (Pfeiffer [2]): Active
- IC50 (SU-DHL-6 [3]): 1.43 µM
- IC50 [4]: 0.0057 µM
- Activity [5]: 10%
- IC50 [6]: 0.137 µM
- Activity [7]: 9.9%
- Activity (Pfeiffer [8]): Active
- IC50 [9]: 2.68 µM
- inhibition in vivo at 5 mg/kg (Pfeiffer [10]): 69%
- IC50 (SUD4): 3.75 µM
- half-life [11]: 1.51 h
- Activity (Pfeiffer [12]): 76.43%
- IC50 [13]: 50.2 µM
- IC50 (DOHH-2): 10.6 µM
- inhibition (B-cell): Active
- Activity (Pfeiffer [14]): 6.03%
- bioavailability [15]: 7.49%
- Cmax [16]: 372 ng/mL
- IC50 [17]: 0.31 µM
- inhibition (Mus musculus): Active
- Activity (Pfeiffer [18]): 33.75%
- Activity (Pfeiffer [19]): 43.33%
- Activity (SU-DHL-6 [20]): >50%
